From paper PMC9030254, “Target Hopping from Protein Kinases to PXR: Identification of Small-Molecule Protein Kinase Inhibitors as Selective Modulators of Pregnane X Receptor from TüKIC Library” (Cells, 2022)

Legend:
Assay in all cases: Kinase profiling
Format in all cases: biochemical
MST3 = target: T1, MST3 (Homo sapiens, UniProt Q9Y6E0)
T1 construct: purchased ProQinase (Freiburg, Germany)
Description: (§1) The analysis was performed by ProQinase (Freiburg, Germany).

DCAMKL2 = target: T2, DCAMKL2 (Homo sapiens, UniProt Q8N568)
T2 construct: purchased ProQinase (Freiburg, Germany)
T2 sequence (Q8N568 1-766): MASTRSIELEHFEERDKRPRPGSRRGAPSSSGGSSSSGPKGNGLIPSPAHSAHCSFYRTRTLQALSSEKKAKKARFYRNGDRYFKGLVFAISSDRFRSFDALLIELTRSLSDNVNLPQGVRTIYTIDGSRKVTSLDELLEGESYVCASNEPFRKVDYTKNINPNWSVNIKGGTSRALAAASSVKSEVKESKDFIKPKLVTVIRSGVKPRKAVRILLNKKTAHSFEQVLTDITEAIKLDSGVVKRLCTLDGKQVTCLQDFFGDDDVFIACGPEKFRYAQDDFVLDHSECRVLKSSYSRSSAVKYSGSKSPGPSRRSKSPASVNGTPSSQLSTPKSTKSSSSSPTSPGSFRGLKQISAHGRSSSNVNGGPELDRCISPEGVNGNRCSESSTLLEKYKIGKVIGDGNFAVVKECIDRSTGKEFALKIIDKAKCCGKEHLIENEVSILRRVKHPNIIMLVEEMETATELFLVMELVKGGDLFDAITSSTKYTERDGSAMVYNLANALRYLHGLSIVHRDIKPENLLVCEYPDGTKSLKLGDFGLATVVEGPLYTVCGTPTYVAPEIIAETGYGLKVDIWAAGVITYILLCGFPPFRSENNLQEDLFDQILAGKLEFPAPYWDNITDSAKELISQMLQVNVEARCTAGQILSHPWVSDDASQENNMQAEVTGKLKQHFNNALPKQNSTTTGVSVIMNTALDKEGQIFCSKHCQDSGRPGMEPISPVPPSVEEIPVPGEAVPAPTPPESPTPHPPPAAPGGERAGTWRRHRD
Description: as §1

NEK2 = target: T3, NEK2 (Homo sapiens, UniProt P51955)
T3 construct: purchased ProQinase (Freiburg, Germany)
T3 sequence (P51955 1-445): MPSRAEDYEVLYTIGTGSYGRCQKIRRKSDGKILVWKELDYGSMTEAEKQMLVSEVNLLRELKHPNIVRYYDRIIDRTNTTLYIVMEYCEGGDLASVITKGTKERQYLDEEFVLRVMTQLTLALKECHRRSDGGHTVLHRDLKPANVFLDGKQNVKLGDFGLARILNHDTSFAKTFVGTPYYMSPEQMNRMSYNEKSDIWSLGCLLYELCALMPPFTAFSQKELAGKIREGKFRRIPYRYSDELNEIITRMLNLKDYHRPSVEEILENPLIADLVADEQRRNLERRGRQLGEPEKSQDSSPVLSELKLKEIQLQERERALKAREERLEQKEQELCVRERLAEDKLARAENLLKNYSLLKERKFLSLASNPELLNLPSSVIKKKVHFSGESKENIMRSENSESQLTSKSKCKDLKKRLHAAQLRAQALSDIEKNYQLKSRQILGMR
Description: as §1

PHKG2 = target: T4, PHKG2 (Homo sapiens, UniProt P15735)
T4 construct: purchased ProQinase (Freiburg, Germany)
T4 sequence (P15735 1-406): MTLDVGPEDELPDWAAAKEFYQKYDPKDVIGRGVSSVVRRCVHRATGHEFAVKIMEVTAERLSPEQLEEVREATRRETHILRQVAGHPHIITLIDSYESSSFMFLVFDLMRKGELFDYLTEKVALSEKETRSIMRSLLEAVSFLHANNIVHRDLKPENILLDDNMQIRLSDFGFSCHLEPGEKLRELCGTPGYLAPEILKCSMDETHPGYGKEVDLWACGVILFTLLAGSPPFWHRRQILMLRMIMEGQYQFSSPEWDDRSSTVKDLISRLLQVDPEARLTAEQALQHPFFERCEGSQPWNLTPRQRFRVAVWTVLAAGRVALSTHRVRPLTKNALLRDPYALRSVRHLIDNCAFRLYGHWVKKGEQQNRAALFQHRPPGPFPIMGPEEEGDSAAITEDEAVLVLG
Description: as §1

FAK = target: T5, FAK (Homo sapiens, UniProt Q05397)
T5 construct: purchased ProQinase (Freiburg, Germany)
T5 sequence (Q05397 whole entry): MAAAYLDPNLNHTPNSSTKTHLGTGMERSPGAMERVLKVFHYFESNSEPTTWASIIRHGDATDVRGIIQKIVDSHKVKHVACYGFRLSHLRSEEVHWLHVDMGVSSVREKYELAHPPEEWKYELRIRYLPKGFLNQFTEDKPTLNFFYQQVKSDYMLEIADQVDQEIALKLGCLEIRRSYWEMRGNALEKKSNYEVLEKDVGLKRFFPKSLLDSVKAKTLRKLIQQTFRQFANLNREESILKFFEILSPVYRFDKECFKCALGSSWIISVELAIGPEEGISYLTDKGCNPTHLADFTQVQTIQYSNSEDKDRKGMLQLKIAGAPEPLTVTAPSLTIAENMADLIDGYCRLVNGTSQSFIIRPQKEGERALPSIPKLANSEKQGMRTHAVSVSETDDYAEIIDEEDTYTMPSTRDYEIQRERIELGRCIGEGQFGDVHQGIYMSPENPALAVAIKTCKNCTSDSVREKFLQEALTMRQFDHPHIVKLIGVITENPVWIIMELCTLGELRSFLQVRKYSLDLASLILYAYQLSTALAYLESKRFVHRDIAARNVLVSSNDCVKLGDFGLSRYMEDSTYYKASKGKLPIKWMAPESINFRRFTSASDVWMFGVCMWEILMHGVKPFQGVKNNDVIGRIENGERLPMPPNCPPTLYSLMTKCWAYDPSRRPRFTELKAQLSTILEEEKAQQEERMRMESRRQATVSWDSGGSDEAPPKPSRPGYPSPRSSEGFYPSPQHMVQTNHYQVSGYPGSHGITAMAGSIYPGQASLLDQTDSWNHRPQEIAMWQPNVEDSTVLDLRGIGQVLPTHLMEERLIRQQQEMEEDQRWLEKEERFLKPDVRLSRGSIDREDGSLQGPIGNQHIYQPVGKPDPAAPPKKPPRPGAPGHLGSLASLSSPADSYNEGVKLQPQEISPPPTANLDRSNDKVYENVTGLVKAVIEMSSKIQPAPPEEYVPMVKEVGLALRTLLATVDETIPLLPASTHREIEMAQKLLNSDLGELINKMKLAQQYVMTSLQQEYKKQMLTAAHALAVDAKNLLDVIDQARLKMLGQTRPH
Description: as §1

CDK9/CycT1 = target: T6, CDK9/CycT1 (Homo sapiens, UniProt P50750)
T6 construct: purchased ProQinase (Freiburg, Germany)
T6 sequence (P50750 whole entry): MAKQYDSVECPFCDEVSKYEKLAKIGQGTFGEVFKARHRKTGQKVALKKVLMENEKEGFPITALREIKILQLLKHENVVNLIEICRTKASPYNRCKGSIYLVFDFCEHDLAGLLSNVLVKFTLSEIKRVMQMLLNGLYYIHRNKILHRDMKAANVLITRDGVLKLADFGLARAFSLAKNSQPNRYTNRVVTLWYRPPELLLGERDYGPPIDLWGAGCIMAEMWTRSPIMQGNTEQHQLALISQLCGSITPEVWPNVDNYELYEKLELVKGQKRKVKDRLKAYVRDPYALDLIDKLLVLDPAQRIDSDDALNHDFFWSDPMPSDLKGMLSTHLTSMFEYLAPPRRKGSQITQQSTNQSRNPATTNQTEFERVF
T6 sequence (O60563 whole entry partner): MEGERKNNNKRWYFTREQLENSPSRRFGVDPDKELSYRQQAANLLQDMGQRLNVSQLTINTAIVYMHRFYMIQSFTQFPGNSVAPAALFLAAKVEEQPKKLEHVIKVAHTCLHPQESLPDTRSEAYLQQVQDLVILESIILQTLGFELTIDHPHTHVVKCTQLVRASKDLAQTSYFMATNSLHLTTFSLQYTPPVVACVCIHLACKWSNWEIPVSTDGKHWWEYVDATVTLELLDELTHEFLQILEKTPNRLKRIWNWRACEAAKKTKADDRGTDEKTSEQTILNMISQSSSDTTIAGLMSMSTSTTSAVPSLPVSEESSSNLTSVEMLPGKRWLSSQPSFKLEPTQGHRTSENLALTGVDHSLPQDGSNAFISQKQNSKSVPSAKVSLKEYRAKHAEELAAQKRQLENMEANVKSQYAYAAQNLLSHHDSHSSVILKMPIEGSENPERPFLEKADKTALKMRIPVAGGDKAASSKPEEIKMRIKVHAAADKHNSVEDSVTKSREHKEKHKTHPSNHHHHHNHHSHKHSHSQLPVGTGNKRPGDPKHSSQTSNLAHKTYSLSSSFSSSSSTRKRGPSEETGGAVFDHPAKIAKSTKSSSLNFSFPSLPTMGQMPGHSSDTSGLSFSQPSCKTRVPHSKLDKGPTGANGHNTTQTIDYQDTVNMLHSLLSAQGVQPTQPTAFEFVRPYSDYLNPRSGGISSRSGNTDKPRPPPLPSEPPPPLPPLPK
Description: as §1

TIE2 = target: T7, TIE2 (Homo sapiens, UniProt Q02763)
T7 construct: purchased ProQinase (Freiburg, Germany)
T7 sequence (Q02763 23-1124): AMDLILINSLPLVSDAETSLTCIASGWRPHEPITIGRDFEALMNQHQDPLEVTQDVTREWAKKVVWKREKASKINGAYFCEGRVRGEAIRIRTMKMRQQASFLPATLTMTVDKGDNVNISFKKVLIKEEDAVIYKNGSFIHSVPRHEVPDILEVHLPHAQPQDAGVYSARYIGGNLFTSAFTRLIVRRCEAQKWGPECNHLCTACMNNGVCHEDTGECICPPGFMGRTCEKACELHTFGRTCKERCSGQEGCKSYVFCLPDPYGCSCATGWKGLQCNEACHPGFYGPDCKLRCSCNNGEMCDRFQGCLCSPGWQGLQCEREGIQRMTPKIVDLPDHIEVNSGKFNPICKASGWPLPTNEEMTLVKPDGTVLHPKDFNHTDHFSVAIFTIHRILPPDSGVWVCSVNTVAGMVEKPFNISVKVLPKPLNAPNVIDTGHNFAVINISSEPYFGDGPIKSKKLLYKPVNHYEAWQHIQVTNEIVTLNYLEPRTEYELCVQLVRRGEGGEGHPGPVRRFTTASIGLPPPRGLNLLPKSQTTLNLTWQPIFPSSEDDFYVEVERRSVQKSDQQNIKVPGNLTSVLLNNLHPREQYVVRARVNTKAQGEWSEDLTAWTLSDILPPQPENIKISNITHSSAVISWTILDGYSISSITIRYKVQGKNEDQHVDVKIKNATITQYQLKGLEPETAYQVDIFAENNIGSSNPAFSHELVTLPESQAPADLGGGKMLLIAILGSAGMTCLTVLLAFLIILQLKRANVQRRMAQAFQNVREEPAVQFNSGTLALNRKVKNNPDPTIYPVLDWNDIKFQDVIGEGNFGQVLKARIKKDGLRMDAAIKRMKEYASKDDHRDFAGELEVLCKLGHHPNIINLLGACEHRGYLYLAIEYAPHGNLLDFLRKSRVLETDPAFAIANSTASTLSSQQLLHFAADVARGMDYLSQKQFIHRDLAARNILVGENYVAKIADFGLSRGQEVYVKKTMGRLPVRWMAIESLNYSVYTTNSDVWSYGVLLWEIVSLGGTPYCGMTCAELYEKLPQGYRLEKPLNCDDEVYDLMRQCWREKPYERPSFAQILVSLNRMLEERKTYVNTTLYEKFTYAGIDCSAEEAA
Description: as §1

EPHB4 = target: T8, EPHB4 (Homo sapiens, UniProt P54760)
T8 construct: purchased ProQinase (Freiburg, Germany)
T8 sequence (P54760 16-987): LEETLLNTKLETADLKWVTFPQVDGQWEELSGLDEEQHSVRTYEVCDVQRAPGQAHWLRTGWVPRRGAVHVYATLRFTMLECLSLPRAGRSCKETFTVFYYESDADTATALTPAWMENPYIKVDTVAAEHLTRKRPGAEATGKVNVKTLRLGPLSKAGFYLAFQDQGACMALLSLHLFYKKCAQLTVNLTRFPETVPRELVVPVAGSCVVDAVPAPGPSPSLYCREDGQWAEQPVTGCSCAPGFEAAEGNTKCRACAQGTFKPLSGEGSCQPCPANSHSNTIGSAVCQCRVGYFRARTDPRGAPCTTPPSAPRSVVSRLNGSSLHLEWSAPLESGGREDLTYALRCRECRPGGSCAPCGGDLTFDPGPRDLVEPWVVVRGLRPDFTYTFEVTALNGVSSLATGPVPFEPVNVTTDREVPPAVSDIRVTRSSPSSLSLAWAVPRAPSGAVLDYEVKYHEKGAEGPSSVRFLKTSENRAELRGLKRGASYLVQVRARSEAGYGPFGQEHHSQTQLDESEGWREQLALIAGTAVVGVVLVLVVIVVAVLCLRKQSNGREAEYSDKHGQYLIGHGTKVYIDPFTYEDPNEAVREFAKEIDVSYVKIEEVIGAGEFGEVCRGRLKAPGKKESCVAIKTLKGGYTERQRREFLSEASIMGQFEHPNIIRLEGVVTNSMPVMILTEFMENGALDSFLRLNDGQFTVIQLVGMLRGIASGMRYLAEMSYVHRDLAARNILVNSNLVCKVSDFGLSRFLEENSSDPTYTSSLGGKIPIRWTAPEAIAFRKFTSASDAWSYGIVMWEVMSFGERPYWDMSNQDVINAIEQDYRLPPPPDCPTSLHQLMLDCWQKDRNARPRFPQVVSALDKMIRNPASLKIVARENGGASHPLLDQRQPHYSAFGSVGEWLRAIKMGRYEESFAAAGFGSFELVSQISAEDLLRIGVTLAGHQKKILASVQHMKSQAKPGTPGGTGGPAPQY
Description: as §1

T1 sequence (Q9Y6E0 whole entry): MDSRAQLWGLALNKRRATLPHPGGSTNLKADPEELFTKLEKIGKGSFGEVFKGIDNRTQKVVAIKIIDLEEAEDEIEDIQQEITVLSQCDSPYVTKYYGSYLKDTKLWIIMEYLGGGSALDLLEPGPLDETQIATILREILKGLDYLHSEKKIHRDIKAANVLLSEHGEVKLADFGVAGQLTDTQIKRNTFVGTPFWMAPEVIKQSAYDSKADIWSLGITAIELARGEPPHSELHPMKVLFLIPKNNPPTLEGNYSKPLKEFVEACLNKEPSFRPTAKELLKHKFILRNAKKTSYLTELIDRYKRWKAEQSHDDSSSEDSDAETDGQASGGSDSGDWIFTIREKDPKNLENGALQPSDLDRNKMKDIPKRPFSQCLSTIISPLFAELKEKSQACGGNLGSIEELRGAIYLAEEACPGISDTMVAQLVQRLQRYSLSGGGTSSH

O=C(Cc1ccccc1)Nc1ccc(F)c(Nc2ccc3c(c2)CCCCC3=O)c1 [Compound 100]
Residual activity (MST3; 1.0E-05 M): 114 % of control
Residual activity (MST3; 1.0E-06 M): 122 % of control
Residual activity (DCAMKL2; 1.0E-05 M): 89 % of control
Residual activity (DCAMKL2; 1.0E-06 M): 101 % of control
Residual activity (NEK2; 1.0E-05 M): 97 % of control
Residual activity (NEK2; 1.0E-06 M): 105 % of control
Residual activity (PHKG2; 1.0E-05 M): 93 % of control
Residual activity (PHKG2; 1.0E-06 M): 96 % of control
Residual activity (FAK; 1.0E-05 M): 88 % of control
Residual activity (FAK; 1.0E-06 M): 116 % of control
Residual activity (CDK9/CycT1; 1.0E-05 M): 89 % of control
Residual activity (CDK9/CycT1; 1.0E-06 M): 95 % of control
Residual activity (TIE2; 1.0E-05 M): 66 % of control
Residual activity (TIE2; 1.0E-06 M): 96 % of control
Residual activity (EPHB4; 1.0E-05 M): 74 % of control
Residual activity (EPHB4; 1.0E-06 M): 99 % of control

O=C(Nc1ccc(F)c(Nc2ccc3c(c2)CCCCC3=O)c1)c1cccc(F)c1 [Compound 109]
Residual activity (MST3; 1.0E-05 M): 103 % of control
Residual activity (MST3; 1.0E-06 M): 106 % of control
Residual activity (DCAMKL2; 1.0E-05 M): 103 % of control
Residual activity (DCAMKL2; 1.0E-06 M): 100 % of control
Residual activity (NEK2; 1.0E-05 M): 101 % of control
Residual activity (NEK2; 1.0E-06 M): 96 % of control
Residual activity (PHKG2; 1.0E-05 M): 95 % of control
Residual activity (PHKG2; 1.0E-06 M): 102 % of control
Residual activity (FAK; 1.0E-05 M): 88 % of control
Residual activity (FAK; 1.0E-06 M): 104 % of control
Residual activity (CDK9/CycT1; 1.0E-05 M): 93 % of control
Residual activity (CDK9/CycT1; 1.0E-06 M): 92 % of control
Residual activity (TIE2; 1.0E-05 M): 78 % of control
Residual activity (TIE2; 1.0E-06 M): 87 % of control
Residual activity (EPHB4; 1.0E-05 M): 82 % of control
Residual activity (EPHB4; 1.0E-06 M): 100 % of control
